Source: the supplement of paper PMC10307832

Columns and labels:
Assay in all cases: relative viability (nuclei count vs DMSO), 5 days (fraction); higher = more cells survive
VX-702 + Pemetrexed = compound: NC(=O)c1ccc(N(C(N)=O)c2c(F)cccc2F)nc1-c1ccc(F)cc1F [VX-702] + Nc1nc2[nH]cc(CCc3ccc(C(=O)N[C@@H](CCC(=O)O)C(=O)O)cc3)c2c(=O)[nH]1 [Pemetrexed] (partner 0.2 µM)
How it was run: (§1)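 The day after seeding in 1536-well plates, lung cancer cell lines were treated by pin tool with a single drug, or with a fixed anchor-drug dose together with five library-drug doses (not always all listed) in √10 steps. After 5 days, a combined fix-and-stain solution (final 0.05% Triton X-100, 1% formaldehyde, 1 ug/ml Hoechst) was added. Nuclei counted on 4× images gave relative viability as treated counts over vehicle counts, reported as the median of duplicate plates.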

Dabrafenib + OSI-027 = compound: CC(C)(C)c1nc(-c2cccc(NS(=O)(=O)c3c(F)cccc3F)c2F)c(-c2ccnc(N)n2)s1 [Dabrafenib] + COc1cccc2cc(-c3nc([C@H]4CC[C@H](C(=O)O)CC4)n4ncnc(N)c34)[nH]c12 [OSI-027] (partner 0.5 µM)
How it was run: as §1

VX-702 = compound: NC(=O)c1ccc(N(C(N)=O)c2c(F)cccc2F)nc1-c1ccc(F)cc1F [VX-702]
How it was run: (§2)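 Five library-drug doses spaced by √10 were pinned onto vehicle-anchored 1536-well plates of lung cancer cell lines that had been kept overnight at 37 °C. Cells went 5 days without medium change, then were fixed, permeabilised and Hoechst-stained together, imaged at 4× and counted by MetaXpress. Viability is the ratio of treated-well to vehicle-well nuclei, taken as a median over plates. Plates required control CV below 25% and at least one doubling.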

Dabrafenib = compound: CC(C)(C)c1nc(-c2cccc(NS(=O)(=O)c3c(F)cccc3F)c2F)c(-c2ccnc(N)n2)s1 [Dabrafenib]
How it was run: as §2

Row | Cell Line | relative viability (VX-702 + Pemetrexed; first compound 0.02 µM) | relative viability (VX-702 + Pemetrexed; first compound 0.2 µM) | relative viability (VX-702 + Pemetrexed; first compound 0.6325 µM) | relative viability (VX-702 + Pemetrexed; first compound 2 µM) | relative viability (Dabrafenib + OSI-027; first compound 0.003 µM) | relative viability (Dabrafenib + OSI-027; first compound 0.009487 µM) | relative viability (Dabrafenib + OSI-027; first compound 0.03 µM) | relative viability (Dabrafenib + OSI-027; first compound 0.09487 µM) | relative viability (Dabrafenib + OSI-027; first compound 0.3 µM) | relative viability (VX-702; 0.02 µM) | relative viability (VX-702; 0.2 µM) | relative viability (VX-702; 0.6325 µM) | relative viability (VX-702; 2 µM) | relative viability (Dabrafenib; 0.003 µM) | relative viability (Dabrafenib; 0.009487 µM) | relative viability (Dabrafenib; 0.03 µM) | relative viability (Dabrafenib; 0.09487 µM) | relative viability (Dabrafenib; 0.3 µM)
1 | H3255 | 0.565 | 0.612 | 0.551 | 0.599 | 0.572 | 0.579 | 0.62 | 0.56 | 0.583 | 0.978 | 0.966 | 0.96 | 1.05 | 0.868 | 1.05 | 0.992 | 0.873 | 1.04
2 | 201T | 0.36 | 0.331 | 0.339 | 0.34 | 0.306 | 0.786 | 0.642 | 0.656 | 0.808 | 0.981 | 1 | 1.01 | 0.976 | 0.958 | 1.01 | 0.914 | 0.987 | 1.04
3 | HCC-44 | 0.615 | 0.652 | 0.653 | 0.678 | 0.45 | 0.614 | 0.511 | 0.478 | 0.591 | 1.05 | 0.979 | 1.08 | 1.05 | 0.885 | 0.971 | 1.01 | 0.921 | 0.933
4 | ABC-1 | – | – | – | – | 0.442 | 0.42 | 0.496 | 0.537 | 0.507 | 0.979 | 0.813 | 0.903 | 1.02 | 0.833 | 1.06 | 0.871 | 0.844 | 1.02
5 | HARA | 0.235 | – | 0.277 | 0.256 | 0.262 | 0.618 | – | 0.327 | 0.864 | 0.964 | 0.897 | 0.965 | 0.969 | 0.737 | 1 | – | 0.922 | 1.12
6 | A-427 | 1.06 | 0.993 | 0.986 | 1.06 | – | 0.351 | 0.518 | 0.379 | 0.474 | 0.985 | 0.964 | 1.04 | 0.754 | – | 0.983 | 0.849 | 0.797 | 1.03
7 | NCI-H3122 | 0.21 | 0.194 | 0.199 | 0.187 | 0.919 | 0.967 | 1.07 | 0.925 | 1.06 | 1.01 | 0.979 | 1 | 1 | 0.981 | 1.05 | 1.09 | 0.991 | 1.06
8 | PC-14 | 0.142 | 0.15 | 0.124 | 0.119 | 0.438 | 1.13 | 0.775 | 0.804 | 0.794 | 1.11 | 1.03 | 1.12 | 0.873 | 0.795 | 1.05 | 1.11 | 1.01 | 1.1
9 | NCI-H1915 | 0.519 | 0.476 | 0.446 | 0.455 | 0.572 | 0.565 | 0.486 | 0.37 | 0.381 | 1.08 | 1 | 1 | 1.05 | 1.03 | 1.04 | 0.823 | 0.523 | 0.579
10 | NCI-H1793 | 0.884 | – | 0.806 | 1.06 | – | 0.393 | – | – | 0.309 | 0.916 | 0.79 | 0.968 | 0.844 | – | 1.29 | – | 0.761 | 1.05
11 | NCI-H1650 | 0.325 | 0.34 | 0.384 | 0.403 | 0.318 | 0.899 | 0.374 | 0.803 | 0.948 | 1 | 1.01 | 1.09 | 1.02 | 0.944 | 1.26 | 0.854 | 1.07 | 1.36
12 | NCI-H1703 | – | – | – | – | – | – | – | – | – | 0.936 | 0.91 | 0.849 | 1.21 | 1 | 1.12 | 0.887 | 0.843 | 1.14
13 | Calu-6 | – | – | – | – | – | – | – | – | – | 1.11 | 1 | 1.08 | 1.21 | 1.03 | 1.03 | 0.909 | 0.805 | 0.786
14 | NCI-H1623 | – | – | – | – | – | 0.46 | 0.441 | 0.425 | 0.489 | 0.834 | 0.943 | 1.02 | 0.905 | – | 0.969 | 0.924 | 1.03 | 1.13
15 | NCI-H1299 | – | – | – | – | – | – | – | – | – | 1.09 | 0.994 | 1.07 | 1.12 | 0.991 | 0.988 | 0.963 | 0.92 | 0.842
16 | IA-LM | – | – | – | – | – | – | – | – | – | 0.956 | 0.896 | 0.92 | 1.04 | 1 | 0.84 | 0.984 | 0.58 | 0.405
17 | EBC-1 | – | – | – | – | – | – | – | – | – | 1.08 | 0.999 | 0.968 | 1.08 | 0.856 | 0.987 | 0.895 | 0.533 | 0.391
18 | NCI-H727 | – | – | – | – | – | 0.395 | 0.677 | 0.568 | 0.643 | 1.09 | 1 | 0.84 | 1.04 | – | 0.998 | 0.782 | 0.902 | 1.1
19 | A549 | – | – | – | – | – | – | – | – | – | 0.999 | 0.928 | 1.02 | 1.07 | 0.928 | 1.03 | 0.93 | 0.93 | 0.969
